Assay [1] has as its target human MLKL (full length) (Homo sapiens (Human), UniProt Q8NB16). Briefly: KINOMEscan binding assay, human MLKL (full length). The conditions noted are these: equilibrium dissociation constant. The essentials:
(§1)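 Binding constants were derived by fitting qPCR-quantified bead-retained kinase against compound concentration to the Hill equation, slope set at −1. Compound series were 3-fold over 11 points with 1% DMSO; most top concentrations were 30,000 nM. Kinases were T7-phage-tagged or HEK-293-produced with DNA tags.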

The target in assay [2] is human RIPK1 (Homo sapiens (Human), UniProt Q13546). Description: KINOMEscan binding assay, human RIPK1. Particulars: equilibrium dissociation constant. In a few lines:
as §1

For assay [3], the target named is human RIPK3 (Homo sapiens (Human), UniProt Q9Y572). Briefly: KINOMEscan binding assay, human RIPK3. Particulars: equilibrium dissociation constant. In a few lines: as §1
Assay [4] relates to Immortalised Mouse Dermal Fibroblasts (MDFs). Briefly: Inhibition of TSI induced necroptosis in mouse dermal fibroblasts (CellTitre-Glo). The conditions noted are these: Mus musculus, Fibroblast, 3 h, MDF cells, TSI cocktail (TNF, Smac mimetic, IDN-6556), read-out: Inhibition of TSI-induced necroptosis (IC50 cell-based assay) in MDF. The protocol:
Cellular Assay: Screening Compounds for Inhibition of TSI Induced Necroptosis in, 384 well plate format. • Cell Line ID: Immortalised Mouse Dermal Fibroblasts (MDFs). • Cell Concentration (cells/well): Final cell density is 2200 cells per well. • Cell growth medium: DMEM medium+7.4% Fetal Bovine Serum (FBS). Cells are cultured in Corning 150 cm^2 tissue culture flasks with vented caps at 37° C./10% CO2. • Incubation: Plates were incubated for 30 minutes following addition of compounds and then 3 hours incubation with death stimuli (TSI cocktail) at 37° C./10% CO2 in a humidified incubator. • Compound concentration: 36 μM starting concentration, 1:3 dilution, 10 point • DMSO final concentration (% v/v): 0.3%. Compounds in TSI Cocktail (T: TNF; S: Smac Mimetic; I: IDN-6556) and their Final Concentrations: • rhTNF (100 ng/ml) • Compound A (500 nM)—Smac mimetic, Tetralogic and SYNthesis med chem • IDN-6556 (10 μM)—Selleckchem (S7775)
The cellular assay was carried out according to the following steps: • 1. Each well was prepared by sequential addition of: • a. 40 μL of cell suspension (5.5×10^4 cells/mL) was added to each well to provide a final cell concentration of 2,200 cells per well. • b. After 24 hours, DMSO (control; columns 1-2 and 23-24) or compound in DMSO—addition was performed using acoustic transfer of nL volumes of stock compound to give final test concentrations of 36, 12, 4, 1.3, 0.44, 0.148, 0.049, 0.016, 0.005 and 0.002 μM. All wells were backfilled with DMSO to a final total volume in the well of 100 nL. • c. Following compound/DMSO addition in step (b), Plates were incubated for 30 minutes at 37° C./10% CO2 in a humidified incubator and then 10 μL of 5×TSI cocktail (except to positive controls; columns 2 and 24) was added to each well. • 2. After 3 hours, plate was removed from the 37° C. incubator and equilibrated to room temperature for 15 minutes. • 3. 15 μL of room temperature CellTitre-Glo2™ (Promega™) was added to each well. • 4. Shook plates for 2 minutes (˜600 rpm) and incubated at room temperature for 15 minutes to allow signal to stabilise. • 5. Read luminescence readout on a plate reader.
Percent viability was calculated for each compound according to equation (2): […]
10 point titration curves were fitted with the 4 parameter logistic nonlinear regression model and the IC50 reported reflect the inflection point of the curve for curve fitting.
• Assay involving the TSI cocktail (T: TNF; S: Smac mimetic; I: IDN-6556): TSI treatment ensures that cells specifically undergo necroptotic cell death. TNF activates the TNF receptor, Smac mimetic directs the signal away from proinflammatory signaling and toward the RIPK1/RIPK3-mediated cell death pathways, and IDN-6556 (Caspase inhibitor) ensures that the apoptotic response is blocked leaving only the programmed necrosis response. The compounds' activity (solution in DMSO) tested in this TSI-induced assay was evaluated by determining the number of viable cells in culture by measuring the amount of ATP present as measured by CelltiterGlo.

In general, Kd refers to the concentration at which binding is half-saturated. The low end stands for a tighter complex, the high end for a looser complex. What is called IC50 is the concentration at which inhibition is half-maximal.

human RIPK1, sequence (Q13546 whole entry): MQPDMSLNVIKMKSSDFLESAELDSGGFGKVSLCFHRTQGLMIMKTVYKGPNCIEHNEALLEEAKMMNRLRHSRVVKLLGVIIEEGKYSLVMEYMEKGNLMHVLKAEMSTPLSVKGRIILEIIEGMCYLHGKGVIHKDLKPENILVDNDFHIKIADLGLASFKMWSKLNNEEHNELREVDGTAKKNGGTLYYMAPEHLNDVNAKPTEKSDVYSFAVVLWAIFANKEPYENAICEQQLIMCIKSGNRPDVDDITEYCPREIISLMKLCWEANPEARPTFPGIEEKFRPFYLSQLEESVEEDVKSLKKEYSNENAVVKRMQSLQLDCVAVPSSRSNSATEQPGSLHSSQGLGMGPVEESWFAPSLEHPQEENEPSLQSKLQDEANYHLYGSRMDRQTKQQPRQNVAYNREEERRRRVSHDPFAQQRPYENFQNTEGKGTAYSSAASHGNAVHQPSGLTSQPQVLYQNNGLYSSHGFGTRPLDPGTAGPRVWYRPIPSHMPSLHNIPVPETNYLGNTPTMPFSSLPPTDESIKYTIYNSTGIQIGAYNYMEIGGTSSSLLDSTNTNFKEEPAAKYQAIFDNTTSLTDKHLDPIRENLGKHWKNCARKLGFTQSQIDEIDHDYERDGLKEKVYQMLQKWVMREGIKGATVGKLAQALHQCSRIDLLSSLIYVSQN
human MLKL (full length), sequence (Q8NB16 whole entry): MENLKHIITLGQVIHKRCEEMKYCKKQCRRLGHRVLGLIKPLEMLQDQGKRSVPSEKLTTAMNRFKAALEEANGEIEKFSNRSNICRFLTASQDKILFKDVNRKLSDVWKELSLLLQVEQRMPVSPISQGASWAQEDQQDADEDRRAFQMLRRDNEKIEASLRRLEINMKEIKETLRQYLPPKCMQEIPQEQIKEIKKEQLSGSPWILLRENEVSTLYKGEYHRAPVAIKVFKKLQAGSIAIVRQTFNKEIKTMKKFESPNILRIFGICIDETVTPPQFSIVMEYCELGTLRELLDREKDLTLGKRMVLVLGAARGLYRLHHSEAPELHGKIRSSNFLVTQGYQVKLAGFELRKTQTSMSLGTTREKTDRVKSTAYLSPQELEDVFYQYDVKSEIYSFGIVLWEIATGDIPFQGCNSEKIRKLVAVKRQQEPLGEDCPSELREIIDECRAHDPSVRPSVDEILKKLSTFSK
human RIPK3, sequence (Q9Y572 whole entry): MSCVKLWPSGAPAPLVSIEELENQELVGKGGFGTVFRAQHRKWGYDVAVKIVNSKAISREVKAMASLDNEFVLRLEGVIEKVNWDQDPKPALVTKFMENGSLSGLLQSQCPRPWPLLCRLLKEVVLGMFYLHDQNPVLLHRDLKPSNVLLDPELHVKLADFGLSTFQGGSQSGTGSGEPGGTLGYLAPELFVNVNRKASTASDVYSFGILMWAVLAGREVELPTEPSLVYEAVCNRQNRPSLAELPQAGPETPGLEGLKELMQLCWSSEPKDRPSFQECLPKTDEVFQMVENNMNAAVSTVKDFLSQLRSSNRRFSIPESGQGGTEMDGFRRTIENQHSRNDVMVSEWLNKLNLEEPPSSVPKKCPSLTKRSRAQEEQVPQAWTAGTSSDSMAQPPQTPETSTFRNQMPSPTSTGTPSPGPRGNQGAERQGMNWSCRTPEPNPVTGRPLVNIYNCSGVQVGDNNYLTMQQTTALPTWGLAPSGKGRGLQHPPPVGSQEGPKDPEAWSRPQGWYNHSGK

With `C[C@H](Oc1cc(-c2nn(C)c3c(-c4cnn(C5CCN(C)C(C)(C)C5)c4)cnc(N)c23)ccc1NS(=O)(=O)C(F)F)c1ccc(F)cc1` (single isomer, unassigned) [Compound 113], the Kd in assay [1] was below 0.001 µM; in assay [2], above 10 µM; in assay [3] it was above 10 µM. In addition, the IC50 in assay [4] was 0.1 to 1 µM.

On to `C[C@H](Oc1cc(-c2nn(C)c3c(-c4cnn(C5CCN(C)C(C)(C)C5)c4)cnc(N)c23)ccc1NS(=O)(=O)C(F)F)c1ccc(F)cc1` (single isomer, unassigned) [Compound 154, N-(4-(4-amino-1-methyl-7-(1-((R*)-1,2,2-trimethylpiperidin-4-yl)-1H-pyrazol-4-yl)-1H-pyrazolo[4,3-c]pyridin-3-yl)-2-((S)-1-(4-fluorophenyl)ethoxy)phenyl)-1,1-difluoromethanesulfonamide], for which the Kd was below 0.001 µM in assay [1], above 10 µM in assay [2] and above 10 µM in assay [3]. Also, in assay [4], the IC50 was below 0.1 µM.

As for `C[C@H](Oc1cc(-c2nn(C)c3c(-c4cnn(C5CCN(C)C6(CC6)C5)c4)cnc(N)c23)ccc1NS(=O)(=O)C(F)F)c1ccc(F)cc1` (single isomer, unassigned) [Compound 170, N-(4-(4-amino-1-methyl-7-(1-((S*)-4-methyl-4-azaspiro[2.5]octan-7-yl)-1H-pyrazol-4-yl)-1H-pyrazolo[4,3-c]pyridin-3-yl)-2-((S)-1-(4-fluorophenyl)ethoxy)phenyl)-1,1-difluoromethanesulfonamide], the Kd in assay [1] was 0.001 to 0.1 µM; in assay [2], above 10 µM; in assay [3] it was above 10 µM. Moreover, in assay [4], the IC50 is below 0.1 µM.

As for `Cn1nc(-c2ccc(NS(=O)(=O)C(F)F)c(OCc3ccc(F)cc3)c2)c2c(N)ncc(-c3cnn(C4CCOCC4)c3)c21` [Compound 13, N-(4-(4-amino-1-methyl-7-(1-(tetrahydro-2H-pyran-4-yl)-1H-pyrazol-4-yl)-1H-pyrazolo[4,3-c]pyridin-3-yl)-2-((4-fluorobenzyl)oxy)phenyl)-1,1-difluoromethanesulfonamide], the results for the Kd in assay [1], in assay [2] and in assay [3] were below 0.001 µM, above 10 µM and above 10 µM, respectively. Besides, the IC50 in assay [4] was 1 to 10 µM.

As for `C[C@H](Oc1cc(-c2nn(C)c3c(-c4cnn(C5CCOCC5)c4)cnc(N)c23)ccc1NS(=O)(=O)C(F)F)c1ccc(F)cc1` [Compound 19, (S)-N-(4-(4-amino-1-methyl-7-(1-(tetrahydro-2H-pyran-4-yl)-1H-pyrazol-4-yl)-1H-pyrazolo[4,3-c]pyridin-3-yl)-2-(1-(4-fluorophenyl)ethoxy)phenyl)-1,1-difluoromethanesulfonamide], the Kd is below 0.001 µM in assay [1], above 10 µM in assay [2] and above 10 µM in assay [3]. For the same molecule, the IC50 in assay [4] was 0.1 to 1 µM.

In the case of `COCCn1cc(-c2cnc(N)c3c(-c4ccc(NS(=O)(=O)C(F)F)c(O[C@@H](C)c5ccc(F)cc5)c4)nn(C)c23)cn1` [Compound 29, (S)-N-(4-(4-amino-7-(1-(2-methoxyethyl)-1H-pyrazol-4-yl)-1-methyl-1H-pyrazolo[4,3-c]pyridin-3-yl)-2-(1-(4-fluorophenyl)ethoxy)phenyl)-1,1-difluoromethanesulfonamide], the Kd was below 0.001 µM in assay [1], above 10 µM in assay [2] and above 10 µM in assay [3]. Moreover, the IC50 in assay [4] is 1 to 10 µM.

Take `C[C@H](Oc1cc(-c2nn(C)c3c(-c4cnn(C5CCCC5)c4)cnc(N)c23)ccc1NS(=O)(=O)C(F)F)c1ccc(F)cc1` [Compound 30, (S)-N-(4-(4-amino-7-(1-cyclopentyl-1H-pyrazol-4-yl)-1-methyl-1H-pyrazolo[4,3-c]pyridin-3-yl)-2-(1-(4-fluorophenyl)ethoxy)phenyl)-1,1-difluoromethanesulfonamide]: the Kd was 0.001 to 0.1 µM in assay [1], above 10 µM in assay [2] and above 10 µM in assay [3]. Moreover, the IC50 in assay [4] was 1 to 10 µM.

`C[C@H](Oc1cc(-c2nn(C)c3c(-c4cnn(C5CCN(C)CC5)c4)cnc(N)c23)ccc1NS(=O)(=O)C(F)F)c1ccc(F)cc1` [Compound 46, (S)-N-(4-(4-amino-1-methyl-7-(1-(1-methylpiperidin-4-yl)-1H-pyrazol-4-yl)-1H-pyrazolo[4,3-c]pyridin-3-yl)-2-(1-(4-fluorophenyl)ethoxy)phenyl)-1,1-difluoromethanesulfonamide]: the Kd was 0.001 to 0.1 µM in assay [1], above 10 µM in assay [2] and above 10 µM in assay [3]. The IC50 in assay [4] lay within 0.1 to 1 µM.

As to `C[C@H](Oc1cc(-c2nn(C)c3c(C#CC4CCNCC4)cnc(N)c23)ccc1NS(=O)(=O)C(F)F)c1ccc(F)cc1` [Compound 79, (S)—N-(4-(4-amino-1-methyl-7-(piperidin-4-ylethynyl)-1H-pyrazolo[4,3-c]pyridin-3-yl)-2-(1-(4-fluorophenyl)ethoxy)phenyl)-1,1-difluoromethanesulfonamide], the dissociation constant (Kd) in assay [1] was below 0.001 µM; in assay [2], above 10 µM; in assay [3] it was above 10 µM. Also, the IC50 in assay [4] lay within 1 to 10 µM.

In the case of `C[C@H](Oc1cc(-c2nn(C)c3c(C#CC4CCN(C)CC4)cnc(N)c23)ccc1NS(=O)(=O)C(F)F)c1ccc(F)cc1` [Compound 80, (S)—N-(4-(4-amino-1-methyl-7-((1-methylpiperidin-4-yl)ethynyl)-1H-pyrazolo[4,3-c]pyridin-3-yl)-2-(1-(4-fluorophenyl)ethoxy)phenyl)-1,1-difluoromethanesulfonamide], the Kd in assay [1] was below 0.001 µM; in assay [2] it was above 10 µM; in assay [3], above 10 µM. The IC50 in assay [4] was 0.1 to 1 µM.

Regarding `CC(C)N(C)C(=O)C(C)n1cc(-c2cnc(N)c3c(-c4ccc(NS(=O)(=O)C(F)F)c(O[C@@H](C)c5ccc(F)cc5)c4)nn(C)c23)cn1` (stereo partly drawn) [Compound 81, 2-(4-(4-amino-3-(4-((difluoromethyl)sulfonamido)-3-((S)-1-(4-fluorophenyl)ethoxy)phenyl)-1-methyl-1H-pyrazolo[4,3-c]pyridin-7-yl)-1H-pyrazol-1-yl)-N-isopropyl-N-methylpropanamide], the Kd in assay [1] was below 0.001 µM; in assay [2], above 10 µM; in assay [3], above 10 µM. Further, the IC50 in assay [4] was 1 to 10 µM.

`C[C@H](Oc1cc(-c2nn(C)c3c(-c4cnn(C(C)(C)CO)c4)cnc(N)c23)ccc1NS(=O)(=O)C(F)F)c1ccc(F)cc1` [Compound 97, (S)-N-(4-(4-amino-7-(1-(1-hydroxy-2-methylpropan-2-yl)-1H-pyrazol-4-yl)-1-methyl-1H-pyrazolo[4,3-c]pyridin-3-yl)-2-(1-(4-fluorophenyl)ethoxy)phenyl)-1,1-difluoromethanesulfonamide]: the Kd in assay [1] is below 0.001 µM; in assay [2], above 10 µM; in assay [3] it was above 10 µM. The IC50 in assay [4] was 1 to 10 µM.

For the molecule `C[C@H](Oc1cc(-c2nn(C)c3c(-c4cnn(C5(CC#N)COC5)c4)cnc(N)c23)ccc1NS(=O)(=O)C(F)F)c1ccc(F)cc1` [Compound 98, (S)-N-(4-(4-amino-7-(1-(3-(cyanomethyl)oxetan-3-yl)-1H-pyrazol-4-yl)-1-methyl-1H-pyrazolo[4,3-c]pyridin-3-yl)-2-(1-(4-fluorophenyl)ethoxy)phenyl)-1,1-difluoromethanesulfonamide], the values for the Kd in assay [1], in assay [2] and in assay [3] were below 0.001 µM, above 10 µM and above 10 µM, respectively. Besides, the IC50 in assay [4] was in the range of 1 to 10 µM.

Values taken from patent publication US20250059188A1, “ARYLSULPHONAMIDE COMPOUNDS” (Anaxis Pharma Pty Ltd, priority 2021, published 2025).
